From patent EP0605261B1, “Use of a flavone derivative as taste modifier and a method of modifying taste” (SAN-EI GEN F.F.I., INC., priority 1992, dated 1994)

Columns and labels:
[1] = Sensory test (limiting method): enhancing the sourness of acid sugar solution; type: in vivo; set-up: key: (equivalent citric acid content / citric acid content with flavone) × 100; settings: citric acid 1.000 (g), flavone derivative (I) 0.00001 (g), 8 panellers
Description: Compounds 1 to 11 of the flavone derivative (I) were used as a taste modifier to prepare acid sugar solution having compositions as follows:
As a control, 21 types of acid sugar solutions are used. In the control, the flavone derivative (I) is removed from the above composition and the content of citric acid is varied from 1.000 g to 1.500 g by 0.025 g.
Sensory tests were carried out by 8 trained panellers in accordance with a limiting method described in the Hand Book of Sensory evaluation, edited by Research Committee of sensory evaluation, Union of Japanese Scientists and Engineers, p.398 (1973) in use of acid sugar solutions containing respective flavone derivatives (I) and another acid sugar solutions having a various content of citric acid.
As for the content of citric acid, two types sensory tests were conducted, one was an ascending system (testing from solution with low concentration) and another was a descending system (testing from solution with high concentration).
The sensory evaluation was made by a value of enhancing the sourness. The value of enhancing the sourness was calculated by the following formula based on the content of citric acid in acid sugar solutions with varied concentration of citric acid, which has an equivalent stimulation with an acid sugar solution containing the flavone derivative (I) Value of enhancing the sourness = (content of citric acid in acid sugar solution sensed as an equivalent stimulation/content of citric acid in acid sugar solution containing the flavone derivative (I)) x 100 [formula]

[2] = Sensory test: savor (hard candy); type: in vivo; settings: hard candy with Aspartame; 0.0001 w/w%; 10 panellers
Description: Compound 10 of the flavone derivative (I) was used as a taste modifier, and 22.5 w/w% thick malt syrup of reducing maltose, 22.5 w/w% reducing starch saccharide and 0.08 w/w% of Aspartame were used as sweetening agents. In accordance with a general method, hard candy containing 0.0001 w/w% of the flavone derivative (I) and flavone derivative (I) free hard candy were prepared. Sensory tests for the savor were conducted by 10 panellers comprised of 6 males and 4 females at the age from 20 to 40.

COc1ccc(-c2cc(=O)c3c(O)c(OC)c(OC)c(OC)c3o2)cc1OC [Compound 10, 5-hydroxy-3',4',6,7,8-pentamethoxyflavone]
Value of enhancing the sourness Ascending system ([1]; ascending system (from low concentration)): 120
Value of enhancing the sourness Descending system ([1]; descending system (from high concentration)): 123
the savor, as sensed by all the panellers [2]: better than that of the control
